Measured values: publication PMC11596392, “Enhanced Antibacterial, Anti-Inflammatory, and Antibiofilm Activities of Tryptophan-Substituted Peptides Derived from Cecropin A-Melittin Hybrid Peptide BP100” (Molecules, 2024)
Where no end group is shown, it is not given here.

Key:
[1] = test system: S. typhimurium (KCTC 1926); format: cell-based, Salmonella typhimurium; details: broth microdilution in MHB, 37 °C, 24 h, 100% inhibition of growth
Description: (§1) The antibacterial efficacy of the synthesized peptides was evaluated by determining the minimal inhibitory concentrations (MICs) against six standard bacterial strains and five drug-resistant bacterial strains using the Clinical and Laboratory Standards Institute (CLSI) microdilution method. Melittin served as the positive control.
(§2) The minimal inhibitory concentrations (MICs) of the peptides against bacterial strains were determined using a modified broth-microdilution method in accordance with the National Committee for Clinical Laboratory Standards (NCCLS) guidelines. Overnight cultures were diluted in cation-adjusted Mueller–Hinton Broth (MHB) to achieve an inoculum density of 2 × 10^6 CFU/mL. A two-fold serial dilution of the peptide solution (100 μL) was introduced into microtiter plates, followed by the addition of 100 μL of bacterial suspension. The plates were then incubated at 37 °C for 24 h to determine the MICs. Wells containing only culture media served as negative controls, while those with added bacteria functioned as positive controls. The MIC, expressed in μM, was defined as the lowest peptide concentration that prevented visible bacterial growth. This protocol was also employed to determine MICs in the presence of physiological salts (150 mM of NaCl, 4.5 mM of KCl, 6 μM of NH4Cl, 1 mM of MgCl2, 2.5 mM of CaCl2, and 4 μM of FeCl3) and 20% human serum to assess the peptides’ efficacy under conditions more closely resembling physiological environments. All experiments were conducted in triplicate and repeated three times independently to ensure reproducibility and statistical significance of the results.

[2] = test system: preformed MDRPA (CCARM 2095) biofilms; format: cell-based, multidrug-resistant Pseudomonas aeruginosa; details: 24 h treatment; for MBEC50: 50% eradication; for MBEC90: 90% eradication
Description: While preventing biofilm formation on surfaces is crucial, treating established biofilm infections presents a significant challenge due to the extracellular polymeric substance (EPS) matrix hindering antibiotic penetration and the high cell density within mature biofilms. To address this challenge, we evaluated the ability of BP100 and its analogs to eradicate established MDRPA biofilms over a 24 h period. The minimum biofilm eradication concentration (MBEC90) was determined using crystal violet staining as the lowest concentration that reduced biomass by more than 90%. Among these peptides, BP5, BP6, BP7, BP8, BP9, BP11, and BP13 eradicated preformed MDRPA biofilms by more than 90% at a concentration of 8 μM (Figure 3c,d and Table 3).
The minimal biofilm eradication concentration (MBEC) for peptides against the multidrug-resistant Pseudomonas aeruginosa (MDRPA) (CCARM 2095) strain was assessed using the Calgary Biofilm Device (CBD), supplied by Innovotech, Edmonton, AB, Canada. A bacterial suspension with a density of (1 × 10^6) CFU/mL in (150 µL) of Luria–Bertani (LB) media was dispensed into each well of a 96-well microtiter plate, which was equipped with a peg lid (Innovotech, product code: 19111). This plate was incubated at 37 °C for 24 h with agitation at 110 rpm, promoting biofilm formation on the pegs. Subsequently, the peg lid was washed with phosphate-buffered saline (PBS, 0.01 M) and relocated to a fresh plate containing varying peptide concentrations (200 µL per well). The biofilms were then subjected to these peptides under the same incubation conditions. After another PBS rinse, the peg lid was moved to a recovery plate filled with (200 µL) of LB media per well. To detach the biofilms from the pegs, the recovery plate underwent sonication in a water bath for 10 to 15 min. Finally, the recovery plate was incubated at 37 °C for 24 h with agitation at 110 rpm, allowing any surviving bacteria to proliferate and cause turbidity. The MBEC is defined as the lowest concentration of peptides that inhibited turbidity formation in the recovery plate in comparison to sterility controls. This experiment was conducted in triplicate, and the median value from each trial was recorded.

[3] = test system: MDRPA (CCARM 2095) biofilm formation; format: cell-based, multidrug-resistant Pseudomonas aeruginosa; details: overnight 37 °C, crystal violet staining; for MBIC50: 50% inhibition; for MBIC90: 90% inhibition
Excerpt: Bacterial biofilms, comprising communities of bacterial cells encased in a matrix of polysaccharides and nucleic acids, present a significant challenge for conventional antibiotics due to the protective nature of this matrix. Biofilms can enhance bacterial resistance to antibiotics by up to 1000-fold compared to planktonic bacteria. To address this issue, there is an urgent need to discover and develop novel alternative therapeutic agents capable of effectively combating biofilm-forming bacteria. […] Our research specifically focused on evaluating the impact of BP100 and its analogs on biofilm formation and eradication using multidrug-resistant Pseudomonas aeruginosa (MDRPA), a common pathogen responsible for biofilm-mediated nosocomial infections. The adhered biomass was quantified using crystal violet staining, and the minimum biofilm inhibitory concentration (MBIC90) was determined as the lowest concentration required to inhibit 90% of biofilm growth relative to the positive control. […] Human cathelicidin LL-37 is well-documented for its potent antibiofilm properties.
The inhibitory activity of the peptides on biofilm formation was evaluated against multidrug-resistant Pseudomonas aeruginosa (MDRPA) (CCARM 2095) using a biofilm inhibition assay to determine the minimal biofilm inhibitory concentration (MBIC). Peptide solutions were serially diluted in sterile water and aliquoted (100 μL) into a 96-well Costar polypropylene plate (Corning Inc., Corning, NY, USA). An equal volume of MDRPA suspension in Mueller–Hinton Broth (MHB), adjusted to 1 × 10^6 CFU/mL, was added to each well, resulting in a final inoculum density of 5 × 10^5 CFU/mL. Following overnight incubation at 37 °C, bacterial growth was quantified by measuring the optical density (OD) at 595 nm. Planktonic cells were then discarded, and the attached biofilms were washed thrice with distilled water. Residual biofilms were stained with 0.1% crystal violet for five minutes, washed to remove non-adherent dye, and subsequently destained using 95% ethanol. The OD at 595 nm was measured again to assess the biofilm mass. Control wells contained untreated bacteria. The MBIC was defined as the lowest peptide concentration that inhibited any residual crystal violet staining or biofilm formation. All assays were conducted in triplicate to ensure reproducibility. This method allows for the quantitative assessment of the peptides’ ability to prevent biofilm formation, a critical virulence factor in many bacterial infections, particularly those caused by multidrug-resistant strains.

MDRPA (CCARM 2095) = format: cell-based, multidrug-resistant Pseudomonas aeruginosa; details: broth microdilution in MHB, 37 °C, 24 h, 100% inhibition of growth
Description: as §1, §2

MDRPA (CCARM 2109) = format: cell-based, multidrug-resistant Pseudomonas aeruginosa; details: broth microdilution in MHB, 37 °C, 24 h, 100% inhibition of growth
Description: as §1, §2

E. coli (KCTC 1682) = format: cell-based, Escherichia coli; details: broth microdilution in MHB, 37 °C, 24 h, 100% inhibition of growth
Description: as §1, §2

[4] = test system: P. aeruginosa (KCTC 1637); format: cell-based, Pseudomonas aeruginosa; details: broth microdilution in MHB, 37 °C, 24 h, 100% inhibition of growth
Description: as §1, §2

MRSA (CCARM 3089) = format: cell-based, methicillin-resistant Staphylococcus aureus; details: broth microdilution in MHB, 37 °C, 24 h, 100% inhibition of growth
Description: as §1, §2

MRSA (CCARM 3090) = format: cell-based, methicillin-resistant Staphylococcus aureus; details: broth microdilution in MHB, 37 °C, 24 h, 100% inhibition of growth
Description: as §1, §2

| Compound | Minimal Inhibitory Concentration (MIC) [1] [µM] | MBEC50 [2] [µM] | MBEC90 [2] [µM] | MBIC50 [3] [µM] | MBIC90 [3] [µM] | Minimal Inhibitory Concentration (MIC) (MDRPA (CCARM 2095)) [µM] | Minimal Inhibitory Concentration (MIC) (MDRPA (CCARM 2109)) [µM] | Minimal Inhibitory Concentration (MIC) (E. coli (KCTC 1682)) [µM] | Minimal Inhibitory Concentration (MIC) [4] [µM] | Minimal Inhibitory Concentration (MIC) (MRSA (CCARM 3089)) [µM] | Minimal Inhibitory Concentration (MIC) (MRSA (CCARM 3090)) [µM] |
| --- | --- | --- | --- | --- | --- | --- | --- | --- | --- | --- | --- |
| CC[C@H](C)[C@H](NC(=O)[C@H](CCCCN)NC(=O)[C@H](CCCCN)NC(=O)[C@H](Cc1ccccc1)NC(=O)[C@H](CC(C)C)NC(=O)[C@H](CCCCN)NC(=O)[C@@H](N)CCCCN)C(=O)N[C@@H](CC(C)C)C(=O)N[C@@H](CCCCN)C(=O)N[C@@H](Cc1ccc(O)cc1)C(=O)N[C@@H](CC(C)C)C(N)=O [BP100] | 4 | 16 to 32 | 32 | 4 to 8 | 8 | 32 | 16 | 4 | 16 | 32 | 64 |
| KKWWKKILKYL-NH2 [BP5] | 2 | 2 | 8 | 4 to 8 | 8 | 8 | 4 | 2 | 4 | 4 | 8 |
| KKLFKKIWKWL-NH2 [BP11] | 2 | 4 to 8 | 8 | 4 to 8 | 8 | 8 | 16 | 8 | 8 | 8 | 32 |
| KKLWKKILKWL-NH2 [BP8] | 4 | 2 | 8 | 4 to 8 | 8 | 8 | 16 | 2 | 16 | 16 | 16 |
| CC[C@H](C)[C@H](NC(=O)[C@H](CCCCN)NC(=O)[C@H](CCCCN)NC(=O)[C@H](Cc1ccccc1)NC(=O)[C@H](CC(C)C)NC(=O)[C@H](CCCCN)NC(=O)[C@@H](N)CCCCN)C(=O)N[C@@H](CC(C)C)C(=O)N[C@@H](CCCCN)C(=O)N[C@@H](Cc1c[nH]c2ccccc12)C(=O)N[C@@H](CC(C)C)C(N)=O [BP4] | 2 | 8 | 32 | 4 to 8 | 8 | 8 | 16 | 4 | 16 | 64 | 64 |
| KKLFKKILKWW-NH2 [BP12] | 4 | 8 to 16 | 16 | 4 to 8 | 8 | 16 | 16 | 8 | 16 | 64 | 64 |
| CC(C)C[C@H](NC(=O)[C@H](Cc1ccc(O)cc1)NC(=O)[C@H](CCCCN)NC(=O)[C@H](CC(C)C)NC(=O)[C@H](Cc1c[nH]c2ccccc12)NC(=O)[C@H](CCCCN)NC(=O)[C@H](CCCCN)NC(=O)[C@H](Cc1ccccc1)NC(=O)[C@H](CC(C)C)NC(=O)[C@H](CCCCN)NC(=O)[C@@H](N)CCCCN)C(N)=O [BP2] | 8 | 16 to 32 | 32 | 8 to 16 | 16 | 8 | 4 | 2 | 8 | 16 | 16 |
| KKLWKKWLKYW-NH2 [BP14] | 8 | 8 to 16 | 16 | 8 to 16 | 16 | 16 | 8 | 4 | 8 | 16 | 32 |
| KKLWKKIWKYW-NH2 [BP15] | 4 | 8 to 16 | 16 | 4 to 8 | 8 | 16 | 8 | 4 | 8 | 16 | 64 |
| KKLWKKIWKYL-NH2 [BP7] | 2 | 4 to 8 | 8 | 4 to 8 | 8 | 8 | 4 | 4 | 8 | 8 | 32 |
